Data: ChEMBL document CHEMBL1146557, “An antiinflammatory galactolipid from rose hip (Rosa canina) that inhibits chemotaxis of human peripheral blood neutrophils in vitro” (J Nat Prod, 2003)

Columns and labels:
[1] = Inhibition of chemotaxis in human polymorphonuclear leukocytes assessed as inhibition of migration towards zymosan-activated human serum at 100 ug/ml after 30 mins by Boyden chamber technique; type: functional; conditions: 0.5 h
[2] = Cytotoxicity against human polymorphonuclear leukocyte assessed as cell viability at 50 to 100 ug/ml by trypan blue exclusion method; conditions: polymorphonuclear leukocytes, read-out: INH
[3] = Inhibition of chemotaxis in human polymorphonuclear leukocytes assessed as inhibition of migration towards zymosan-activated human serum at 50 ug/ml after 30 mins by Boyden chamber technique; type: functional; conditions: 0.5 h
[4] = Inhibition of chemotaxis in human polymorphonuclear leukocytes assessed as inhibition of migration towards zymosan-activated human serum at 10 ug/ml after 30 mins by Boyden chamber technique; type: functional; conditions: 0.5 h
[5] = Inhibition of chemotaxis in human polymorphonuclear leukocytes assessed as inhibition of migration towards zymosan-activated human serum at 1 ug/ml after 30 mins by Boyden chamber technique; type: functional; conditions: 0.5 h
[6] = Inhibition of chemotaxis in human polymorphonuclear leukocytes assessed as inhibition of migration towards zymosan-activated human serum at 0.1 ug/ml after 30 mins by Boyden chamber technique; type: functional; conditions: 0.5 h

With `CC/C=C\C/C=C\C/C=C\CCCCCCCC(=O)OC[C@H](CO[C@@H]1O[C@H](CO)[C@H](O)[C@H](O)C1O)OC(=O)CCCCCCC/C=C\C/C=C\C/C=C\CC` (single isomer, unassigned) as the compound, how does the inhibition at 100 µg/mL [1] read?
The inhibition at 100 µg/mL was 82%.

What about the viability [2] of the same compound?
Its viability is 100%.

And the inhibition at 50 µg/mL [3]?
Its inhibition at 50 µg/mL is 77%.

What about the inhibition at 10 µg/mL [4] of the same compound?
Its inhibition at 10 µg/mL is 62%.

What about the inhibition at 1 µg/mL [5] of the same compound?
Its inhibition at 1 µg/mL is 64%.

What about the inhibition at 0.1 µg/mL [6] of the same compound?
The inhibition at 0.1 µg/mL was 7%.
